Data taken from patent US9499538B2, “Estrogen receptor modulators and uses thereof” (Seragon Pharmaceuticals, Inc., priority 2012, dated 2016).

Experiments:
[1] = target: T1, ER-α in MCF-7 cells (Homo sapiens, UniProt P03372); assay: Breast Cancer Cell ER-α In Cell Western Assay (SP1); format: cell-based; details: 4 or 24 hr post compound addition; for Emax: MCF7, SP1 antibody, read-out: ER-α In Cell Western Assay (SP1) Max Response; for DC50: SP1 antibody, read-out: ER-α In Cell Western Assay (SP1) IC50
T1 construct: endogenous in cells; host or cells: MCF-7
T1 sequence (P03372 1-595): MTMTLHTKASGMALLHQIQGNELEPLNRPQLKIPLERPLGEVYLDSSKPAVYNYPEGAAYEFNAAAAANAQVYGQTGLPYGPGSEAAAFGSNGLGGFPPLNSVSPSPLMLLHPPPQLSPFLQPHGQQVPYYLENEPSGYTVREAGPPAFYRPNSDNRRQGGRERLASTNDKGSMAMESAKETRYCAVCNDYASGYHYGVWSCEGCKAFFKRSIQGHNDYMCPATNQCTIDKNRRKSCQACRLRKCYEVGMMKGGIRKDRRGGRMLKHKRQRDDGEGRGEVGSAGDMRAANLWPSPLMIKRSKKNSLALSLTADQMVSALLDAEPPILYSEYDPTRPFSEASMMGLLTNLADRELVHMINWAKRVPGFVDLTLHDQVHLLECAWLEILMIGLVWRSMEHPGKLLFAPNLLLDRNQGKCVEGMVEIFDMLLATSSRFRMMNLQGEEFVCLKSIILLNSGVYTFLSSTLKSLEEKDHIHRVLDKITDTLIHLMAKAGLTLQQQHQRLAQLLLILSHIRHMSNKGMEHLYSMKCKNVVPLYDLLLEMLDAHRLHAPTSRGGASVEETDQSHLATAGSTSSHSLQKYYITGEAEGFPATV
Protocol: MCF-7 cells were adjusted to a concentration of 200,000 cells per mL in RPMI containing 10% charcoal-stripped FBS and 20 mM HEPES. 16 microliters of the cell suspension (3200 cells) was added to each well of a poly-D-lysine 384 well plate, and the cells were incubated overnight to allow the cells to adhere. The following day an eleven point, serial semilog dilution of each compound was added to the cells in 16 μL at a final concentration ranging from 0.3-0.000003 μM. At 4 or 24 hr post compound addition, the cells were fixed (10% formalin in PBS) for 20 minutes. Cells were permeablized in PBS 0.1% Triton and blocked with LICOR blocking buffer (50 μl/well, 90′). The wells were then incubated overnight at 4° C. with SP1 rabbit monoclonal Ab (Thermo Scientific) diluted 1:1000 in LICOR blocking buffer/0.1% Tween-20. Wells which were treated with blocking buffer with Tween but no antibody were used as a background control. Wells were washed with 0.1% Tween-20/PBS and then incubated in goat anti-rabbit IRDye™ 800CW (LICOR Inc.; 1:10000) and DRAQ5 DNA dye (1:2000 for 2 mM stock) diluted in LICOR blocking buffer containing 0.1% Tween-20 and 0.01% SDS for 60 minutes. Cells were washed (50 μl/well, 5′ each) in 0.1% Tween-20/PBS. Plates were scanned on a LICOR Odyssey infrared imaging system. Integrated intensities in the 800 nm channel and 700 nm channel were measured to determine levels of ER and DNA respectively. Percent ER levels were determined as follows: (Integrated intensity 800 nm sample/integrated intensity 700 nm sample)/(Integrated intensity 800 nm untreated cells/integrated intensity 700 nm untreated cells)×100=% ER levels. […]

[2] = test system: MCF-7 cells; assay: Breast Cancer Cell Viability Assays (MCF-7, CellTiter-Glo); format: cell-based; details: 5 days' compound exposure; for IC50: Homo sapiens, MCF7, 120 h
Protocol: MCF-7 cells were adjusted to a concentration of 20,000 cells per mL in RPMI containing 10% FBS and 20 mM HEPES. 16 microliters of the cell suspension (320 cells) was added to each well of a 384 well plate, and the cells were incubated overnight to allow the cells to adhere. The following day an eleven point, serial semilog dilution of each compound was added to the cells in 16 μL at a final concentration ranging from 0.3-0.000003 μM. After 5 days' compound exposure, 16 μL of CellTiter-GLo (Promega, Madison Wis.) was added to the cells, and the relative luminescence units (RLUs) of each well were determined. CellTiter-Glo added to 32 μL of medium without cells was used to obtain a background value. The Percent viability of each sample was determined as follows: (RLU sample−RLU background/RLU untreated cells−RLU background)×100=% viability. […]

SMILES | Emax [1] [%] | DC50 [1] [nM] | IC50 [2] [nM] | MCF7 Viability Assay Max Response [2]
COc1cc(/C=C/C(=O)O)ccc1/C(=C(\c1ccccc1)C1CCC1)c1ccc2[nH]nc(F)c2c1 [Example 38, (E)-3-(4-((Z)-2-Cyclobutyl-1-(3-fluoro-1H-indazol-5-yl)-2-phenylvinyl)-3-methoxyphenyl)acrylic acid] | ≥ 40 | ≤ 100 | ≤ 100 | ++ (++ = a single % value ≧ 40%)
Fc1n[nH]c2ccc(/C(=C(/c3ccccc3)C3CCC3)c3ccc(/C=C/c4cnc[nH]4)cc3)cc12 [Example 39, 5-((E)-1-(4-((E)-2-(1H-Imidazol-5-yl)vinyl)phenyl)-2-cyclobutyl-2-phenylvinyl)-3-fluoro-1H-indazole] | ≥ 40 | ≤ 100 | ≤ 100 | ++ (++ = a single % value ≧ 40%)
CC/C(=C(/c1ccc(/C=C/C(=O)O)cc1)c1ccc2[nH]ncc2c1)c1cccc(S(=O)(=O)C(F)(F)F)c1 [Example 41, (E)-3-(4-((E)-1-(1H-Indazol-5-yl)-2-(3-((trifluoromethyl)sulfonyl)phenyl)but-1-en-1-yl)phenyl)acrylic acid] | ≥ 40 | ≤ 100 | ≤ 100 | ++ (++ = a single % value ≧ 40%)
COc1ccc(/C(=C(\c2ccc(/C=C/C(=O)O)cc2)c2ccc3[nH]ncc3c2)C2CCC2)c(C#N)c1 [Example 42, (E)-3-(4-((E)-2-(2-Cyano-4-methoxyphenyl)-2-cyclobutyl-1-(1H-indazol-5-yl)vinyl)phenyl)acrylic acid] | ≥ 40 | ≤ 100 | ≤ 100 | ++ (++ = a single % value ≧ 40%)
O=C(O)/C=C/c1ccc(/C(=C(\c2cccc(S(=O)(=O)C(F)(F)F)c2)C2CCC2)c2ccc3[nH]nc(F)c3c2)cc1 [Example 45, (E)-3-(4-((E)-2-Cyclobutyl-1-(3-fluoro-1H-indazol-5-yl)-2-(3-((trifluoromethyl)sulfonyl)phenyl)vinyl)phenyl)acrylic acid] | ≥ 40 | ≤ 100 | ≤ 100 | ++ (++ = a single % value ≧ 40%)
Cc1cnccc1/C(=C(\c1ccc(/C=C/C(=O)O)cc1)c1ccc2[nH]nc(F)c2c1)C1CCC1 [Example 46, (E)-3-(4-((E)-2-Cyclobutyl-1-(3-fluoro-1H-indazol-5-yl)-2-(3-methylpyridin-4-yl)vinyl)phenyl)acrylic acid] | ≥ 40 | ≤ 100 | ≤ 100 | ++ (++ = a single % value ≧ 40%)
O=C(O)/C=C/c1ccc(/C(=C(\c2ccncc2C(F)(F)F)C2CCC2)c2ccc3[nH]nc(F)c3c2)cc1 [Example 47, (E)-3-(4-((E)-2-Cyclobutyl-1-(3-fluoro-1H-indazol-5-yl)-2-(3-(trifluoromethyl)pyridin-4-yl)vinyl)phenyl)acrylic acid] | ≥ 40 | ≤ 100 | ≤ 100 | ++ (++ = a single % value ≧ 40%)
N#Cc1cc(F)ccc1/C(=C(\c1ccc(/C=C/C(=O)O)cc1)c1ccc2[nH]ncc2c1)C1CCC1 [Example 54, (E)-3-(4-((E)-2-(2-Cyano-4-fluorophenyl)-2-cyclobutyl-1-(1H-indazol-5-yl)vinyl)phenyl)acrylic acid] | ≥ 40 | ≤ 100 | ≤ 100 | ++ (++ = a single % value ≧ 40%)

Further lines, with some results ahead:

Emax [1] [%] | DC50 [1] [nM] | IC50 [2] [nM] | SMILES | MCF7 Viability Assay Max Response [2]
≥ 40 | ≤ 100 | ≤ 100 | N#Cc1ccc(/C(=C(\c2ccc(/C=C/C(=O)O)cc2)c2ccc3[nH]nc(F)c3c2)C2CCC2)c(Cl)c1 [Example 40, (E)-3-(4-((E)-2-(2-Chloro-4-cyanophenyl)-2-cyclobutyl-1-(3-fluoro-1H-indazol-5-yl)vinyl)phenyl)acrylic acid] | ++ (++ = a single % value ≧ 40%)
≥ 40 | ≤ 100 | ≤ 100 | N#Cc1ccc(/C(=C(\c2ccc(/C=C/C(=O)O)cc2)c2ccc3[nH]ncc3c2)C2CCC2)c(Cl)c1 [Example 43, (E)-3-(4-((E)-2-(2-Chloro-4-cyanophenyl)-2-cyclobutyl-1-(1H-indazol-5-yl)vinyl)phenyl)acrylic acid] | ++ (++ = a single % value ≧ 40%)
≥ 40 | ≤ 100 | ≤ 100 | COc1ccc(/C(=C(\c2ccc(/C=C/C(=O)O)cc2)c2ccc3[nH]nc(F)c3c2)C2CCC2)c(C#N)c1 [Example 44, (E)-3-(4-((E)-2-(2-Cyano-4-methoxyphenyl)-2-cyclobutyl-1-(3-fluoro-1H-indazol-5-yl)vinyl)phenyl)acrylic acid] | ++ (++ = a single % value ≧ 40%)
≥ 40 | ≤ 100 | ≤ 100 | N#Cc1ccc(/C(=C(\c2ccc(/C=C/C(=O)O)cc2)c2ccc3[nH]nc(F)c3c2)C2CCC2)c(F)c1 [Example 48, (E)-3-(4-((E)-2-(4-Cyano-2-fluorophenyl)-2-cyclobutyl-1-(3-fluoro-1H-indazol-5-yl)vinyl)phenyl)acrylic acid] | ++ (++ = a single % value ≧ 40%)
≥ 40 | ≤ 100 | ≤ 100 | N#Cc1cc(F)ccc1/C(=C(\c1ccc(/C=C/C(=O)O)cc1)c1ccc2[nH]nc(F)c2c1)C1CCC1 [Example 49, (E)-3-(4-((E)-2-(2-Cyano-4-fluorophenyl)-2-cyclobutyl-1-(3-fluoro-1H-indazol-5-yl)vinyl)phenyl)acrylic acid] | ++ (++ = a single % value ≧ 40%)
≥ 40 | ≤ 100 | ≤ 100 | Cc1cc(C#N)ccc1/C(=C(\c1ccc(/C=C/C(=O)O)cc1)c1ccc2[nH]nc(F)c2c1)C1CCC1 [Example 50, (E)-3-(4-((E)-2-(4-Cyano-2-methylphenyl)-2-cyclobutyl-1-(3-fluoro-1H-indazol-5-yl)vinyl)phenyl)acrylic acid] | ++ (++ = a single % value ≧ 40%)
≥ 40 | ≤ 100 | ≤ 100 | CS(=O)(=O)c1ccc(/C(=C(\c2ccc(/C=C/C(=O)O)cc2)c2ccc3[nH]nc(F)c3c2)C2CCC2)c(F)c1 [Example 51, (E)-3-(4-((E)-2-Cyclobutyl-1-(3-fluoro-1H-indazol-5-yl)-2-(2-fluoro-4-(methylsulfonyl)phenyl)vinyl)phenyl)acrylic acid] | ++ (++ = a single % value ≧ 40%)
≥ 40 | ≤ 100 | ≤ 100 | O=C(O)/C=C/c1ccc(/C(=C(\c2ccncc2F)C2CCC2)c2ccc3[nH]nc(F)c3c2)cc1 [Example 52, (E)-3-(4-((E)-2-Cyclobutyl-1-(3-fluoro-1H-indazol-5-yl)-2-(3-fluoropyridin-4-yl)vinyl)phenyl)acrylic acid] | ++ (++ = a single % value ≧ 40%)
≥ 40 | ≤ 100 | ≤ 100 | N#Cc1ccc(/C(=C(\c2ccc(/C=C/C(=O)O)cc2)c2ccc3[nH]ncc3c2)C2CCC2)c(F)c1 [Example 53, (E)-3-(4-((E)-2-(4-Cyano-2-fluorophenyl)-2-cyclobutyl-1-(1H-indazol-5-yl)vinyl)phenyl)acrylic acid] | ++ (++ = a single % value ≧ 40%)
